Laboratory results as given in paper PMC7756666, “Non‐Stationary Complementary Non‐Uniform Sampling (NOSCO NUS) for Fast Acquisition of Serial 2D NMR Titration Data” (Angewandte Chemie (International Ed. in English), 2020).
Ends that are not written are not given here.

Molecular target: T1, SH3 domain of α‐spectrin (Gallus gallus, UniProt P07751)
T1 construct: SH3 domain of α‐spectrin, has 60 residues
Experiment: NMR titration (2D 1H-15N HSQC), p41 binding by SH3
Conditions: system as introduced in text; pH 3.5; 8 ligand-to-protein ratios; no spread given; read-out: KD (dissociation constant)
Source text: The critical information on molecular dissociation constants, K D, and chemical shift perturbation (CSP) amplitudes, Δv, can be derived by individually fitting the correlated signal frequencies, observed in the 2D protein NMR spectra of a titration series, to the equation [Eq. 1]:(1) νI=νI,0+f(x,KD)·ΔνI
where [Eq. 2](2) f(x,KD)=KD+(1+x)cP-(KD+(1+x)cP)^2-4cP2x/2cP
v I is the observed chemical shift (I=^15N or^1H ), v I,0 is the pertaining reference chemical shift in the absence of ligand; Δv I is the maximal CSP amplitude due to ligand binding; x=c L/ c P is the ligand to protein molar ratio; c P is the total protein concentration.
NMR frequency sampling in an indirect time dimension is a lengthy process (fundamental reasons described in SI). Here we propose a method for complementary non‐uniform sampling (NUS) of entire titration series of 2D ^1H‐^15N HSQC spectra within less time even than required for a single conventional spectrum. For this we sample the indirect t 1(^15N) dimension as in a standard NUS experiment, yet with complementary sampling schedules for the different titration points such that each ligand‐to‐protein ratio, x, is sampled for a unique set of t 1 times (Figure 1). A full grid of 256 t 1 increments in a titration series with 8 different x ratios would, thus, be sampled in 8 complementary schedules of 32 points. […]

T1 sequence (P07751 967-1026 limits assumed): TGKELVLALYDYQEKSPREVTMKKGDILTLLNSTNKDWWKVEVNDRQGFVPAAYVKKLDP

Kd: 9 mM
Sequence: APSYSPPPPP [p41]
